Publication PMC11133798, “Vosoritide treatment for children with hypochondroplasia: a phase 2 trial” (eClinicalMedicine, 2024)

System: children with hypochondroplasia
Design: species or system human
Settings: in vivo
Text: The study has 3 prespecified co-primary outcomes: 1. To evaluate the safety and tolerability of daily subcutaneous injections of vosoritide administered for 12 months in patients with selected genetic causes of short stature, 2. To evaluate the change from baseline in age-sex standardized annualized growth velocity after 12 months of daily SC injections of vosoritide in patients with selected genetic causes of short stature, and 3. To evaluate the change from baseline in age-sex standardized height SDS after 12 months of daily SC injections of vosoritide in patients with selected genetic causes of short stature. Annualized growth velocity was standardized using data from the First Zurich Longitudinal Study of Growth and Development[9] as it includes growth velocity data starting at age 2.5 years. Height SDS was calculated using the United States CDC growth charts.[8] Hypochondroplasia specific height SDS was calculated using recently published hypochondroplasia growth curves.[10] To measure these outcomes, the following 3 co-primary endpoints were specified: 1. The incidence of adverse events per participant, 2. The change from baseline in age-sex standardized annualized growth velocity after 12 months of treatment, and 3. The change from baseline in age-sex standardized height SDS after 12 months of treatment. Height was measured five times at each study visit on a wall-mounted calibrated Harpenden stadiometer. The average of all five values was used. Safety assessments included routine laboratory evaluations at each visit, baseline and Month 12 echocardiograms, electrocardiograms at each visit, vital signs measurements, and spine X-rays at Day 1 and Month 12. No formal power calculations were done for this proof of principle study. Sample size was determined based on logistical feasibility. Medication adherence was calculated using the number of returned empty vials divided by the number of days of prescribed therapy. Demographics and clinical characteristics were summarized with mean and standard deviation (SD), median and interquartile (IQR) for numerical variables, frequency and proportion for categorical variables. Primary and secondary clinical outcomes were summarized with mean (SD) for the 6-month observation period and the 12-month treatment period. Paired t-tests were carried out to compare the difference between the treatment and observation periods. The corresponding p-value and 95% confidence interval (CI) were reported. Box and whisker plots were used for both primary endpoints (annualized growth velocity and height SDS) and exploratory endpoints (CXM and cGMP) to visualize the trends for the change from baseline to each of the follow-up visits. Safety data (AEs) were summarized as count and percentage of patients as well as the number of total occurrences per each listed AE for the observation period and the treatment period, respectively. As exploratory analyses, the primary endpoints were stratified based on age, baseline growth velocity and baseline height SDS. The summaries of mean (SD) for each visit, mean differences between treatment and observation periods, and the corresponding p-value and 95% CI were all reported. Parent reported quality of life using the […] scale was also reported with a similar tabular format. Data were analyzed using SAS for Windows version 9.4 (SAS Institute Inc., Cary, NC). A two-sided test with a significance level of 0.05 was used for all hypothesis tests.

With “PGQEHPNARKYKGANKKGLSKGCFGLKLDRIGSMSGLGC (disulfide) [vosoritide, recombinant 39-amino-acid C-type natriuretic peptide analog expressed in E. coli, cyclic by an intramolecular disulfide bond]” the “Abdominal pain: # of patients” value was 5, the “Abdominal pain: # of total occurrences” value was 15 and the “Abdominal pain: % of patients” value was 20.8%. For the same sequence, the “Any injection site reaction (overall): # of patients” value was 20, the “Any injection site reaction (overall): # of total occurrences” value was 329 and the “Any injection site reaction (overall): % of patients” value was 83.3%. The “Assay for drug induced anti-platelet antibodies” value was “negative”, the “Cough: # of patients” value was 12 and the “Cough: # of total occurrences” value was 20. The “Cough: % of patients” value was 50.0%, the “Diarrhea: # of patients” value was 2 and the “Diarrhea: # of total occurrences” value was 3. For the same sequence, the “Diarrhea: % of patients” value was 8.3%, the “Discontinuation due to a treatment related adverse event” value was “No participants discontinued treatment” and the “Dizziness: # of patients” value was 3. For the same sequence, the “Dizziness: # of total occurrences” value was 4, the “Dizziness: % of patients” value was 12.5% and the “Ear infection: # of patients” value was 2. For the same sequence, the “Ear infection: # of total occurrences” value was 2, the “Ear infection: % of patients” value was 8.3% and the “Epistaxis: # of patients” value was 3. The “Epistaxis: # of total occurrences” value was 3, the “Epistaxis: % of patients” value was 12.5% and the “Fever: # of patients” value was 13. The “Fever: # of total occurrences” value was 29, the “Fever: % of patients” value was 54.2% and the “Headache: # of patients” value was 6. For the same sequence, the “Headache: # of total occurrences” value was 17, the “Headache: % of patients” value was 25.0% and the “Injection site bruising: # of patients” value was 6. The “Injection site bruising: # of total occurrences” value was 20, the “Injection site bruising: % of patients” value was 25.0% and the “Injection site erythema: # of patients” value was 13. For the same sequence, the “Injection site erythema: # of total occurrences” value was 113, the “Injection site erythema: % of patients” value was 54.2% and the “Injection site pain: # of patients” value was 7. The “Injection site pain: # of total occurrences” value was 61, the “Injection site pain: % of patients” value was 29.2% and the “Injection site swelling: # of patients” value was 13. The “Injection site swelling: # of total occurrences” value was 116, the “Injection site swelling: % of patients” value was 54.2% and the “Injection site urticaria: # of patients” value was 7. The “Injection site urticaria: # of total occurrences” value was 19, the “Injection site urticaria: % of patients” value was 29.2% and the “Laceration: # of patients” value was 3. The “Laceration: # of total occurrences” value was 3, the “Laceration: % of patients” value was 12.5% and the “Nasopharyngitis: # of patients” value was 2. The “Nasopharyngitis: # of total occurrences” value was 2, the “Nasopharyngitis: % of patients” value was 8.3% and the “Other Grade 3 or higher adverse events” value was “no other Grade 3 or higher adverse events”. The “Rash maculo-papular: # of patients” value was 2, the “Rash maculo-papular: # of total occurrences” value was 2 and the “Rash maculo-papular: % of patients” value was 8.3%. For the same sequence, the “Rhinorrhea: # of patients” value was 6, the “Rhinorrhea: # of total occurrences” value was 6 and the “Rhinorrhea: % of patients” value was 25.0%. The “Scoliosis: # of patients” value was 3, the “Scoliosis: # of total occurrences” value was 3 and the “Scoliosis: % of patients” value was 12.5%. The “Severity and outcome of injection site reactions” value was “grade 1 or 2 and self-resolved”, the Symptomatic hypotension was “no episodes of symptomatic hypotension” and the Syncope was “One participant”. For the same sequence, the “Upper respiratory tract infection: # of patients” value was 2, the “Upper respiratory tract infection: # of total occurrences” value was 2 and the “Upper respiratory tract infection: % of patients” value was 8.3%. The “Vomiting: # of patients” value was 11, the “Vomiting: # of total occurrences” value was 18 and the “Vomiting: % of patients” value was 45.8%.
